In US9078856B2, “Improving efficacy of cancer therapy” (CHILDREN'S MEDICAL CENTER CORPORATION, priority 2010, dated 2015):

What was measured:
[1] = target: T1, TRPV4 (Mus musculus, UniProt Q9EPK8); experiment: Calcium influx in Fluo-4 loaded normal and tumor endothelial cells in response to TRPV4 activator; assay type: cell-based; settings: Fluo-4 loaded cells
T1 construct: normal EC that were isolated from the dermis (MDEC cells) of TRAMP mice were used instead; endogenous in cells; host or cells: tumor endothelial cells (TEC) from TRAMP mouse prostate adenocarcinoma; normal EC (MDEC) from TRAMP mouse dermis
Excerpt: Cell Culture. Tumor endothelial cells (EC) cells were isolated from transgenic TRAMP mice bearing prostate adenocarcinoma. Because it is difficult to obtain sufficient quantities of EC cells from the normal mouse prostate (due to its small size), normal EC that were isolated from the dermis (MDEC cells) of TRAMP mice were used instead. Normal EC cells from human dermis (HDEC cells; Cambrex) and an established mouse pancreatic EC cell line (MS1-EC cells; gift of Judah Folkman) served as independent non-tumor EC cell controls. […]
(§1) EC cells adherent to the flexible substrates were loaded with Fluo-4/AM (1 μM) for 30 min, washed 3 times in calcium medium (136 mM NaCl, 4.7 mM KCl, 1.2 mM MgSO4, 1.1 mM CaCl2, 1.2 mM KH2PO4, 5 mM NaHCO3, 5.5 mM glucose, and 20 mM Hepes. pH 7.4) and then exposed to mechanical strain (15% elongation) for 3-4 sec using a Stage Flexer (FLEXCELL® International) apparatus that is fixed on a Nikon upright microscope equipped with CCD camera (Spot-RT slider, Diagnostics Corp, USA). Images were acquired for every 4 seconds and analyzed using IP lab software and Microsoft Excel as described in Matthews, et al. (2006) (J. Cell Sci., 119:508-518).
To confirm whether this difference in TRPV4 expression affects TRPV4 function in these cells, the inventors measured calcium influx in Fluo-4 loaded cells in response to specific TRPV4 activator 4-α-PDD.

[2] = target: T2, human TRPV4 (Homo sapiens, UniProt Q9HBA0); experiment: Calcium influx in TEC transfected with human TRPV4-EGFP construct; assay type: cell-based
T2 construct: expressed in transfected cells; host or cells: mouse tumor endothelial cells (TEC) from TRAMP mice, Amaxa nucleofection
Procedure: as §1
Next, the inventors transfected TEC with a human TRPV4-EGFP construct and checked its ability to rescue aberrant mechanosensation of tumor EC. […] TRPV4 activator, 4-α-PDD induced almost 8 fold increase in calcium in these cells compared to EGFP alone-transfected TEC (FIG. 2A). The inventors then cultured these TRPV4-overexpressing cells on transglutamase linked gelatin gels of various stiffness (98 to 2,280 Pa) for 6 h and compared their cell spreading over time with that of EGFP-transfected TEC (control). As expected and shown in FIGS. 2B and 2C, TEC cells transfected with only EGFP attached, spread and increases their degree of spreading with the increasing gel stiffness. […]

T1 sequence (Q9EPK8 whole entry): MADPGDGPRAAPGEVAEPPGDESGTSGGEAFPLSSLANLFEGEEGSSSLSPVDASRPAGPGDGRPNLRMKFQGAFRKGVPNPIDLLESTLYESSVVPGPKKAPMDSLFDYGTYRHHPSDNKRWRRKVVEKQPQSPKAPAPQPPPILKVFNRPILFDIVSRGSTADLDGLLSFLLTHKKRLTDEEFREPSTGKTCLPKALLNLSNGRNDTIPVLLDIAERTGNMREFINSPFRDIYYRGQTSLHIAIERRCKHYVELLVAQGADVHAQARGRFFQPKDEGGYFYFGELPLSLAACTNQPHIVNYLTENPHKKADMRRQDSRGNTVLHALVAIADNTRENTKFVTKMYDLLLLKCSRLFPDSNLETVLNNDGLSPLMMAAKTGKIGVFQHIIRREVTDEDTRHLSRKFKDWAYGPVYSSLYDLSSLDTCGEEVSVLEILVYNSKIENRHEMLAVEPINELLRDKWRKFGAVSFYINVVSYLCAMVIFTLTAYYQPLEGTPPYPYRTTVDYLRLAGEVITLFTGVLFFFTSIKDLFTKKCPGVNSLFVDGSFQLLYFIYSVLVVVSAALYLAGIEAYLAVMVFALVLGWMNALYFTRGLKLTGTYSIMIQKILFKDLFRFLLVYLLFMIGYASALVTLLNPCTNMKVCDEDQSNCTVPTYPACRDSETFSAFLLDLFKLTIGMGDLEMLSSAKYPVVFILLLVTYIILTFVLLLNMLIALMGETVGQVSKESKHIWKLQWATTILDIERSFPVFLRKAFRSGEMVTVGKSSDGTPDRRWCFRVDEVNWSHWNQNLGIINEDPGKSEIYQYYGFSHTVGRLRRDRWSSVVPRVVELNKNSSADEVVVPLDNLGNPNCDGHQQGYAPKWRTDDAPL
T2 sequence (Q9HBA0 whole entry): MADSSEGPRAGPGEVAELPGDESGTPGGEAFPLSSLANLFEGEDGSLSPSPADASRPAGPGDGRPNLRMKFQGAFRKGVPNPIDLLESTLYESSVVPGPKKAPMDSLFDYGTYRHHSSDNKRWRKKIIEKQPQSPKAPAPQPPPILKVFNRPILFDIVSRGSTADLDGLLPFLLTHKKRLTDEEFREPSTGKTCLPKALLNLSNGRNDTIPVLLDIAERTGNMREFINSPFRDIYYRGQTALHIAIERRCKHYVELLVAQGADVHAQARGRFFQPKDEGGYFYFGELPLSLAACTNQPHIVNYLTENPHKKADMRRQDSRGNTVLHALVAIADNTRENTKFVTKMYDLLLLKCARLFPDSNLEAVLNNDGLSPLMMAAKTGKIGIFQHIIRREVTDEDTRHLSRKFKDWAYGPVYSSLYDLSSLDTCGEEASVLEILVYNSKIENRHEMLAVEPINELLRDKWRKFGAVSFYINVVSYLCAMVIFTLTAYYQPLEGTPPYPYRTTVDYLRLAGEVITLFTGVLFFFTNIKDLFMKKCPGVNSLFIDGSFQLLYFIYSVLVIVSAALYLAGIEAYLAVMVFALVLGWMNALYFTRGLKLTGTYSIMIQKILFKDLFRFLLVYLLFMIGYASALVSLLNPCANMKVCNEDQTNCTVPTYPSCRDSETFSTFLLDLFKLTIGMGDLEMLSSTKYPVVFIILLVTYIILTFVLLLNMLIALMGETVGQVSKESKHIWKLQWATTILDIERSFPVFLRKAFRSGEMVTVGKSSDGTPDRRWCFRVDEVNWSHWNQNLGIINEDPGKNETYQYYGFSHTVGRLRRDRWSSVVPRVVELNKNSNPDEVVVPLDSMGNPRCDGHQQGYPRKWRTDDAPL

Compound: CCCCCCCCCC(=O)O[C@@H]1[C@@H](C)[C@@]2(O)[C@@H](C=C(CO)C[C@@]3(O)C(=O)C(C)=C[C@@H]23)[C@@H]2C(C)(C)[C@]12OC(=O)CCCCCCCCC [4-α-PDD, 4-α-phorbol 12,13-didecanoate]
- calcium influx induced in nEC ([1]; normal EC (nEC)): rapid robust calcium influx
- reduction of induced calcium influx in tumor EC compared with nEC ([1]; tumor EC vs nEC): ~40%
- increase in calcium compared to EGFP alone-transfected TEC [2]: ~8 fold
